Measurements taken from US11578013B2, “Nitrification inhibitors” (Lincoln University, priority 2020, dated 2023).
Structures can show the parent of a compound that is named as a salt. Blank lines part the entries; values can stand above or below the compound they belong to.

Columns and labels:
nitrification = test: Table 1 summary: compounds found to work or not work as nitrification inhibitors, Inhib(%); set-up: concentration or dose not given beside the values; settings: test and rate not given
Method: The phenotypic screening involved assessing the nitrification inhibition potency of the selected 5000 compounds against a key ammonia oxidizing bacterium responsible for ammonia oxidation in the soil, Nitrosomonas europaea, in 96-well microtiter plates. N. europaea cells were grown in the presence of an ammonium source, and the potential of putative nitrification inhibitors to inhibit the production of nitrite (NO2) was measured relative to untreated cells.
A summary of selected compounds initially found to either work or not work as nitrification inhibitors is detailed in Table 1 below.

[1] = test system: nitrification in the soil; test: Laboratory soil incubation, Templeton sandy loam with synthetic cow urine, nitrate-N; settings: for nitrate-N concentration in the soil compared with urine alone or urine+DMSO / reducing the nitrification rate compared with DCD: day 30; for % reduction by NI (nitrate-N): vs urine alone, 30 days; for reducing the nitrification rate compared with DCD: compound at 2 kg/ha vs DCD at 10 kg/ha; for Nitrate-N: 30 days of incubation
Method: A Templeton sandy loam was used in this experiment. 500 g of soil (dry weight basis) was packed into a pottle. 50 mL of synthetic cow urine with an N concentration of 7 g N/L (comprising about 87% urea-N and 13% glycine-N) was applied to the soil (equivalent to 700 kg N/ha on weight basis, assuming bulk density of 1 g/cm^3 in the top 10 cm of soil). The 700 kg N/ha application was used to simulate the urine-N application rate under a typical dairy cow urine patch in a grazed pasture.
Control treatments also added to soil were: • urine alone (50 mL); • DMSO (equivalent to 0.9 mL/500 g soil)+urine (50 mL) to determine the effect of DMSO on nitrification rate; • water alone (50 mL) (simulating areas of the soil where no urine was deposited).
Pottles were covered with lids with breathing holes to allow for gas exchange during incubation. Pottles were incubated at 12° C. Soil moisture content was maintained at field capacity by adjusting on weight basis twice a week.
Soil samples were collected and were then thoroughly mixed and subsamples were extracted in a potassium chloride solution and analysed for mineral-N. Soil moisture content was also determined. Samples were taken at 30 days after the start of incubation. […]

[2] = test system: N2O emissions in the soil; test: Field study of nitrous oxide emissions, static gas chamber method, urine-treated pasture soil; settings: for nitrous oxide reductions compared with DCD: sprayed onto urine-treated pasture soil
Method: (§1) This study was conducted on the Lincoln University Research Dairy Farm, and the soil was a Templeton sandy loam with established perennial ryegrass (Lolium perenne) and white clover (Trifolium repens.) pasture. Metal rings (500 mm diameter and 200 mm height) were inserted into the ground. A water trough sitting on top of the metal rings allowed the placement of static chambers sitting on top of the water trough to provide a gas-tight seal to allow N2O gas sampling.
Synthetic urine with a nitrogen concentration of 7 g N/L was applied to the soil plots confined within the metal rings at the equivalent rate of 700 kg N/ha. […] The plots were irrigated with irrigation water in accordance with local dairy farming practice.
(§2) The gas chamber (500 mm diameter and 120 mm height) was constructed of a metal cylinder insulated with 2.5 cm thick polystyrene foam to avoid heating of the atmosphere in the chamber during sampling. During periods of N2O measurement, the edge of the chamber was placed inside the small water trough which was mounted around the top of each metal ring for gas sampling. At each sampling time, the chamber was placed on top of the soil ring for a total of 40 minutes, and 3 samples, 20 minutes apart, were taken using a syringe through a rubber septum on top of the gas chamber. Samples were taken twice weekly. Each sampling was carried out during the middle of the day between 12:00 h to 14:00 h (Di et al., 2007). The N2O concentration in the samples was analysed using a gas chromatograph (SRI8610C with an Electron Capture Detector (ECD) (SRI Instruments, USA) linked to a Gilson 222XL autosampler (Gilson, France)
as §1, with “To determine the effect of treating the soil with 2-ethynyl-5-methoxypyridine on nitrous oxide emissions under field soil conditions, a field study was conducted using the static gas chamber method. This” for “This”
Synthetic urine with a nitrogen concentration of 7 g N/L was applied to the soil plots confined within the metal rings at the equivalent rate of 700 kg N/ha. 196.25 mg or 39.2 mg of 2-ethynyl-5-methoxypyridine were dissolved in 2 mL DMSO, mixed with 1000 mL of water, and then sprayed on to the mini-plots at the rates of 196.25 mg/plot and 39.2 mg/plot, equivalent to 10 kg/ha and 2 kg/ha, respectively. The plots were irrigated with irrigation water in accordance with local dairy farming practice.
as §2, with “France).” for “France)”
To determine the effect of treating the soil with 3-ethynylpyridine 1-oxide on nitrous oxide emissions under field soil conditions, a field study was conducted using the static gas chamber method. […]

SMILES: C#CC1CCN(C(C)=O)CC1 [1-(4-ethynyl-1-piperidinyl)ethanone, reference compound]
- Inhib(%) (nitrification): 0%

SMILES: C#Cc1cccnn1 [3-Ethynylpyridazine]
- nitrate-N concentration in the soil compared with urine alone or urine+DMSO ([1]; 0.5 kg/ha): lower nitrate-N concentrations
- % reduction by NI (nitrate-N) ([1]; 0.5 kg/ha): 91%
- nitrate-N concentration in the soil compared with urine alone or urine+DMSO ([1]; 1 kg/ha): lower nitrate-N concentrations
- % reduction by NI (nitrate-N) ([1]; 1 kg/ha): 98%
- nitrate-N concentration in the soil compared with urine alone or urine+DMSO ([1]; 2 kg/ha): significantly lower nitrate-N concentrations
- % reduction by NI (nitrate-N) ([1]; 2 kg/ha): 95%
- reducing the nitrification rate compared with DCD [1]: more effective than DCD
- Nitrate-N ([1]; urine + inhibitor at 0.5 kg/ha): 35.5 mg N/kg soil
- Nitrate-N ([1]; urine + inhibitor at 1 kg/ha): 10.3 mg N/kg soil
- Nitrate-N ([1]; urine + inhibitor at 2 kg/ha): 10.5 mg N/kg soil

SMILES: C#Cc1ccc[n+]([O-])c1 [3-ethynylpyridine 1-oxide]
- nitrate-N concentration in the soil compared with urine alone or urine+DMSO ([1]; 0.5 kg/ha): lower nitrate-N concentrations
- % reduction by NI (nitrate-N) ([1]; 0.5 kg/ha): 43%
- nitrate-N concentration in the soil compared with urine alone or urine+DMSO ([1]; 1 kg/ha): lower nitrate-N concentrations
- % reduction by NI (nitrate-N) ([1]; 1 kg/ha): 96%
- nitrate-N concentration in the soil compared with urine alone or urine+DMSO ([1]; 2 kg/ha): significantly lower nitrate-N concentrations
- % reduction by NI (nitrate-N) ([1]; 2 kg/ha): 97%
- reducing the nitrification rate compared with DCD [1]: more effective than DCD
- Nitrate-N ([1]; urine + inhibitor at 0.5 kg/ha): 224.4 mg N/kg soil
- Nitrate-N ([1]; urine + inhibitor at 1 kg/ha): 20.8 mg N/kg soil
- Nitrate-N ([1]; urine + inhibitor at 2 kg/ha): 8.2 mg N/kg soil
- Inhib(%) (nitrification): 100%
- nitrous oxide reductions compared with DCD [2]: greater than that by DCD
- N2O emissions ([2]; urine + inhibitor at 2 kg/ha): 3.6 kg N2O—N/ha
- N2O emissions ([2]; urine + inhibitor at 10 kg/ha): 0.79 kg N2O—N/ha

SMILES: C#Cc1ccc(C#C)cc1 [1,4-diethynylbenzene]
- nitrate-N concentration in the soil compared with urine alone or urine+DMSO ([1]; 2 kg/ha): significantly lower nitrate-N concentrations
- reducing the nitrification rate compared with DCD [1]: more effective than DCD
- Inhib(%) (nitrification): 100%

SMILES: C#Cc1cnccn1 [2-ethynylpyrazine]
- reducing the nitrification rate compared with DCD [1]: more effective than DCD

SMILES: C#Cc1ncccn1 [2-Ethynyl 1,3 Diazine, 2-Ethynylpyrimidine]
- % reduction by NI (nitrate-N) ([1]; 0.5 kg/ha): 96%
- % reduction by NI (nitrate-N) ([1]; 1 kg/ha): 98%
- % reduction by NI (nitrate-N) ([1]; 2 kg/ha): 84%
- reducing the nitrification rate compared with DCD [1]: more effective than DCD
- Nitrate-N ([1]; urine + inhibitor at 0.5 kg/ha): 17.5 mg N/kg soil
- Nitrate-N ([1]; urine + inhibitor at 1 kg/ha): 9.1 mg N/kg soil
- Nitrate-N ([1]; urine + inhibitor at 2 kg/ha): 31.8 mg N/kg soil
- Inhib(%) (nitrification): 94%
- % reduction by NI (N2O emissions) ([2]; 2 kg/ha, vs urine alone): 91%
- nitrous oxide reductions compared with DCD [2]: greater than that by DCD
- N2O emissions ([2]; urine + inhibitor at 2 kg/ha): 1.2 kg N2O—N/ha
- N2O emissions ([2]; urine + inhibitor at 10 kg/ha): 0.53 kg N2O—N/ha

- melting point: 41.3 to 42.7 °C
SMILES: C#Cc1cnc(OC)cn1 [2-Ethynyl-5-methoxypyrazine]
- nitrate-N concentration in the soil compared with urine alone or urine+DMSO ([1]; 1 kg/ha): lower nitrate-N concentrations
- nitrate-N concentration in the soil compared with urine alone or urine+DMSO ([1]; 2 kg/ha): lower nitrate-N concentrations

SMILES: C#CC1CCNCC1 [4-ethynylpiperidine hydrochloride, reference compound]
- Inhib(%) (nitrification): 0%

SMILES: C#Cc1cnc(C#C)nc1 [2,5-diethynylpyrimidine, reference compound]
- Inhib(%) (nitrification): 60%

- melting point: 56.2 to 57.2 °C
SMILES: C#Cc1ncc(OC)cn1 [2-Ethynyl-5-methoxypyrimidine]
- nitrate-N concentration in the soil compared with urine alone or urine+DMSO ([1]; 1 kg/ha): lower nitrate-N concentrations
- nitrate-N concentration in the soil compared with urine alone or urine+DMSO ([1]; 2 kg/ha): significantly lower nitrate-N concentrations
- reducing the nitrification rate compared with DCD [1]: more effective than DCD

SMILES: C#Cc1ccc(OCCCCC)cc1 [1-ethynyl-4-pentoxybenzene, reference compound]
- Inhib(%) (nitrification): 2%

SMILES: C#Cc1cncnc1 [3-Ethynyl 1,5 Diazine, 5-Ethynylpyrimidine]
- % reduction by NI (nitrate-N) ([1]; 0.5 kg/ha): 70%
- % reduction by NI (nitrate-N) ([1]; 1 kg/ha): 97%
- % reduction by NI (nitrate-N) ([1]; 2 kg/ha): 84%
- reducing the nitrification rate compared with DCD [1]: more effective than DCD
- Nitrate-N ([1]; urine + inhibitor at 0.5 kg/ha): 118.1 mg N/kg soil
- Nitrate-N ([1]; urine + inhibitor at 1 kg/ha): 13.3 mg N/kg soil
- Nitrate-N ([1]; urine + inhibitor at 2 kg/ha): 31.6 mg N/kg soil
- Inhib(%) (nitrification): 95%
- nitrous oxide reductions compared with DCD [2]: greater than that by DCD
- N2O emissions ([2]; urine + inhibitor at 2 kg/ha): 0.89 kg N2O—N/ha
- N2O emissions ([2]; urine + inhibitor at 10 kg/ha): 0.92 kg N2O—N/ha

SMILES: C#Cc1ccc(OC)cn1 [2-ethynyl-5-methoxypyridine]
- nitrate-N concentration in the soil compared with urine alone or urine+DMSO ([1]; 0.5 kg/ha): lower nitrate-N concentrations
- % reduction by NI (nitrate-N) ([1]; 0.5 kg/ha): 93%
- nitrate-N concentration in the soil compared with urine alone or urine+DMSO ([1]; 1 kg/ha): lower nitrate-N concentrations
- % reduction by NI (nitrate-N) ([1]; 1 kg/ha): 97%
- nitrate-N concentration in the soil compared with urine alone or urine+DMSO ([1]; 2 kg/ha): significantly lower nitrate-N concentrations
- % reduction by NI (nitrate-N) ([1]; 2 kg/ha): 78%
- reducing the nitrification rate compared with DCD [1]: more effective than DCD
- Nitrate-N ([1]; urine + inhibitor at 0.5 kg/ha): 28.6 mg N/kg soil
- Nitrate-N ([1]; urine + inhibitor at 1 kg/ha): 13.8 mg N/kg soil
- Nitrate-N ([1]; urine + inhibitor at 2 kg/ha): 100 mg N/kg soil
- Inhib(%) (nitrification): 100%
- nitrous oxide reductions compared with DCD [2]: greater than that by DCD
- N2O emissions ([2]; urine + inhibitor at 2 kg/ha): 2 kg N2O—N/ha
- N2O emissions ([2]; urine + inhibitor at 10 kg/ha): 2 kg N2O—N/ha

SMILES: C#Cc1ccncn1 [4-Ethynylpyrimidine]
- nitrate-N concentration in the soil compared with urine alone or urine+DMSO ([1]; 1 kg/ha): lower nitrate-N concentrations
- nitrate-N concentration in the soil compared with urine alone or urine+DMSO ([1]; 2 kg/ha): significantly lower nitrate-N concentrations
- reducing the nitrification rate compared with DCD [1]: more effective than DCD
- Inhib(%) (nitrification): 100%

SMILES: C#Cc1c[nH]c(=O)[nH]c1=O [5-ethynyl-2,4(1H,3H)-pyrimidinedione, reference compound]
- Inhib(%) (nitrification): 0%

SMILES: C#Cc1cc[n+](O)cc1 [4-ethynylpyridine 1-oxide, reference compound]
- Inhib(%) (nitrification): 18%

SMILES: C#Cc1ccc(O)cc1 [4-ethynylphenol, reference compound]
- Inhib(%) (nitrification): 0%

SMILES: C#Cc1ccc(OC(F)(F)F)cc1 [1-ethynyl-4-(trifluoromethoxy)benzene, reference compound]
- Inhib(%) (nitrification): 8%

SMILES: C#Cc1ccc(C#C)nc1 [2,5-diethynylpyridine]
- nitrate-N concentration in the soil compared with urine alone or urine+DMSO ([1]; 2 kg/ha): lower nitrate-N concentrations
- Inhib(%) (nitrification): 100%

SMILES: C#Cc1ccc(OCC)cc1 [1-ethoxy-4-ethynylbenzene]
- nitrate-N concentration in the soil compared with urine alone or urine+DMSO ([1]; 2 kg/ha): significantly lower nitrate-N concentrations
- reducing the nitrification rate compared with DCD [1]: more effective than DCD
- Inhib(%) (nitrification): 100%

SMILES: C#Cc1ccc(OC)nc1 [5-ethynyl-2-methoxypyridine]
- nitrate-N concentration in the soil compared with urine alone or urine+DMSO ([1]; 2 kg/ha): lower nitrate-N concentrations
- Inhib(%) (nitrification): 100%
